According to patent publication US11090351B2, “Whitening agent” (KAO CORPORATION, priority 2016, dated 2021):
Like-named read-outs stand apart in the source and are kept apart here.

How the values were obtained:
B16 melanoma cells [1] = assay: Inhibition of melanogenesis in skin melanocytes (relative amount of extracellular melanin); assay type: cell-based; details: Mus musculus
Method: (§1) B16 melanoma cells (DS pharma Biomedical) were used as skin melanocytes. The B16 melanoma cells were cultured in a CO2 incubator (37° C., 5% CO2) in 10 cm dishes containing the DMEM medium supplemented with 10% FBS. A cell suspension at 5.0×10^4 cells/mL was prepared from the cultured cells. 998 μL aliquots of the cell suspension were dispensed into 24 well plates and cultured in a CO2 incubator (37° C., 5% CO2) overnight. Subsequently, 2 μL of the DMSO solution of the methanol extract from Syzygium polyanthum prepared in Production Example 3 was added to each well (the final concentrations of the extract: 25 and 50 μg/mL) and the mixtures were further cultured for 72 hours. Arbutin (730 μM) was used instead of the extract as a positive control. DMSO was used as control.
The supernatants of the cultures prepared in (1) were collected, 200 μL each was transferred into a 96 well plate, and then the absorbance was measured at 510 nm. The relative amount of extracellular melanin was calculated by determining the relative value to the control.
(§2) The assay for tyrosinase activity was conducted in a procedure similar to that in Example 1 (3) using Compounds 1-3 as samples. In the tyrosinase activity assay, the final concentrations of each compound were adjusted to 100, 50, 25, and 12.5 mM and IC50 was calculated. Moreover, tests for melanogenesis inhibiting activity and for cytotoxicity were conducted in procedures similar to those in Example 2. The relative amount of extracellular melanin and the relative cell survival rate of skin melanocytes to which Compounds 1-3 were added were measured. The result of the tyrosinase activity assay is illustrated in Table 5 and the results of the measurements of the relative amount of extracellular melanin and the relative cell survival rate are illustrated in Table 6.

B16 melanoma cells [2] = assay: Cytotoxicity test (MTT assay), relative cell survival rate; assay type: cell-based
Method: as §1
The MTT assay solution was prepared by dissolving 50 mg of Thiazolyl Blue Tetrazolium Bromide (SIGMA) in 10 mL of PBS (−). 50 μL of the MTT assay solution was added to each culture prepared in (1) and reacted for 4 hours. Then, 1 mL of isopropanol for MTT was added to each culture and the plate was covered with aluminum foil and allowed for reaction at room temperature for 2 hours for the reaction. After the reaction, the total amount was collected and centrifuged (1.45×10^3 rpm, 1 min), then 150 μL each of the supernatants was transferred into a 96 well plate, and the absorbance was measured at 590 nm. The relative cell survival rate (cytotoxicity) was calculated by determining the relative value to the control.
as §2

mushroom tyrosinase = assay: Tyrosinase activity assay (methanol extract, fractions, Compounds 1-3); assay type: biochemical; details: Table 5
Method: 1 mg of methanol extract from Syzygium polyanthum prepared in Production Example 3 was dissolved in 50 μL of DMSO and 550 μL of a buffer (50 mM solution of disodium hydrogen phosphate, pH 6.5). This extract solution was transferred in a 96 well plate so that the final concentrations of extract became 500, 250, 125, 62.5, 31.25, 15.625, 7.8125 and 0 μg/mL and diluted to 60 μL with the buffer. 30 μL of the tyrosinase solution (a buffered solution of 1 mg/16 mL mushroom tyrosinase (SIGMA), pH 6.5) and 110 μL of the substrate solution (2 mM L-tyrosine or 12 mM L-DOPA) were added to each well of the 96 well plate.
Each fraction was dissolved in 600 μL of DMSO and added to 96-well plates to the final concentrations of 50, 25 and 12.5 μg/mL.
In the tyrosinase activity assay, the final concentrations of each compound were adjusted to 100, 50, 25, and 12.5 mM and IC50 was calculated. […] The result of the tyrosinase activity assay is illustrated in Table 5 and the results of the measurements of the relative amount of extracellular melanin and the relative cell survival rate are illustrated in Table 6.

[3] = substrate L-DOPA, read-out: IC50 (μM) DOPA
[4] = substrate L-tyrosine, read-out: IC50 (μM) Tyrosine

SMILES	activity at 730 µM (B16 melanoma cells [1]; 72 hours, relative to DMSO control, Table 3)	activity at 730 µM (B16 melanoma cells [1]; Table 6)	Cell Viability (%) (B16 melanoma cells [2]; 730 μM, 72 hours, MTT, relative to control, Table 3)	Cell Viability (%) (B16 melanoma cells [2]; 730 μM, Table 6)	activity at 100 µM (B16 melanoma cells [1])	activity at 200 µM (B16 melanoma cells [1]; 200 μM)	IC50 (mushroom tyrosinase; [3])	IC50 (mushroom tyrosinase; [4])	Cell Viability (%) (B16 melanoma cells [2]; 100 μM)	Cell Viability (%) (B16 melanoma cells [2]; 200 μM)	activity at 25 µM (B16 melanoma cells [1])	activity at 50 µM (B16 melanoma cells [1])	Cell Viability (%) (B16 melanoma cells [2]; 25 μM)	Cell Viability (%) (B16 melanoma cells [2]; 50 μM)	activity at 75 µM (B16 melanoma cells [1]; 75 μM)	Cell Viability (%) (B16 melanoma cells [2]; 75 μM)
OC[C@H]1O[C@@H](Oc2ccc(O)cc2)[C@H](O)[C@@H](O)[C@@H]1O [Arbutin, reference compound]	21.3%	32.7%	99%	107.6%	–	–	–	–	–	–	–	–	–	–	–	–
CCCCCC(=O)c1cc(O)c(C)c(O)c1O [Compound 1, 1-(2,3,5-Trihydroxy-4-methylphenyl)hexane-1-one]	–	–	–	–	78.2%	13.6%	291 µM	125 µM	73.3%	64.9%	–	–	–	–	–	–
CCCCCCCC(=O)c1cc(O)c(C)c(O)c1O [Compound 2, 1-(2,3,5-Trihydroxy-4-methylphenyl)octane-1-one]	–	–	–	–	–	–	616 µM	481 µM	–	–	99%	13.5%	95.0%	87.4%	–	–
CCCCC/C=C/CCC(=O)c1cc(O)c(C)c(O)c1O [Compound 3, (4E)-1-(2,3,5-Trihydroxy-4-methylphenyl)dec-4-en-1-one]	–	–	–	–	11.4%	–	489 µM	84 µM	72.9%	–	107%	27.2%	94.3%	99.8%	9.7%	92.5%
